System: 422866-222-R5-J1-PDC spheroids with HUVEC/MSC, viability
Experiment: Anticancer human tumor 422866-222-R5-J1-PDC patient-derived pancreatic adenocarcinoma cell line growth inhibition [GQUAD]
Details: for IC50: curve of first compound; for viability, T/C: stronger effect = lower value
In short: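 Multi-cell-type spheroids of tumor cells with HUVEC and mesenchymal stem cells, treated with drug combinations. Concentrations descend in half-log steps from near clinical Cmax, or from 10 microM where Cmax is unknown; viability read-out.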
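Note: spheroids exposed to compounds for seven days before reading.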
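Throughout, for viability, T/C: percent viability relative to DMSO vehicle control taken as 100%.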

SMILES: CC[C@@]1(O)C(=O)OCc2c1cc1n(c2=O)Cc2cc3c(CN(C)C)c(O)ccc3nc2-1 + Cc1cnc(CNC(=O)c2c(=O)c3ccc(N4CCCN(C)CC4)nc3n3c2sc2ccccc23)cn1
- IC50 (second compound 0.0316 µM): 191 nM
- IC50 (second compound 0.1 µM): > 316 nM
- IC50 (second compound 0.316 µM): > 316 nM
- IC50 (second compound 1 µM): > 316 nM
- IC50 (second compound 3.16 µM): > 316 nM
- IC50 (second compound 10 µM): > 316 nM
- viability, T/C (second compound 0.0316 µM, first compound 0.000999 µM): 97.1%
- viability, T/C (second compound 0.0316 µM, first compound 0.00316 µM): 92.6%
- viability, T/C (second compound 0.0316 µM, first compound 0.00999 µM): 94%
- viability, T/C (second compound 0.0316 µM, first compound 0.0316 µM): 77.1%
- viability, T/C (second compound 0.0316 µM, first compound 0.0999 µM): 51.4%
- viability, T/C (second compound 0.0316 µM, first compound 0.316 µM): 48.9%
- viability, T/C (second compound 0.1 µM, first compound 0.000999 µM): 95.8%
- viability, T/C (second compound 0.1 µM, first compound 0.00316 µM): 86.8%
- viability, T/C (second compound 0.1 µM, first compound 0.00999 µM): 82.8%
- viability, T/C (second compound 0.1 µM, first compound 0.0316 µM): 70.8%
- viability, T/C (second compound 0.1 µM, first compound 0.0999 µM): 69.6%
- viability, T/C (second compound 0.1 µM, first compound 0.316 µM): 56.2%
- viability, T/C (second compound 0.316 µM, first compound 0.000999 µM): 89.2%
- viability, T/C (second compound 0.316 µM, first compound 0.00316 µM): 85%
- viability, T/C (second compound 0.316 µM, first compound 0.00999 µM): 87.3%
- viability, T/C (second compound 0.316 µM, first compound 0.0316 µM): 80.6%
- viability, T/C (second compound 0.316 µM, first compound 0.0999 µM): 80.9%
- viability, T/C (second compound 0.316 µM, first compound 0.316 µM): 58.6%
- viability, T/C (second compound 1 µM, first compound 0.000999 µM): 78.6%
- viability, T/C (second compound 1 µM, first compound 0.00316 µM): 81.4%
- viability, T/C (second compound 1 µM, first compound 0.00999 µM): 76.5%
- viability, T/C (second compound 1 µM, first compound 0.0316 µM): 81.4%
- viability, T/C (second compound 1 µM, first compound 0.0999 µM): 83.6%
- viability, T/C (second compound 1 µM, first compound 0.316 µM): 74.9%
- viability, T/C (second compound 3.16 µM, first compound 0.000999 µM): 79.7%
- viability, T/C (second compound 3.16 µM, first compound 0.00316 µM): 80.8%
- viability, T/C (second compound 3.16 µM, first compound 0.00999 µM): 83.8%
- viability, T/C (second compound 3.16 µM, first compound 0.0316 µM): 81.5%
- viability, T/C (second compound 3.16 µM, first compound 0.0999 µM): 90.9%
- viability, T/C (second compound 3.16 µM, first compound 0.316 µM): 74.6%
- viability, T/C (second compound 10 µM, first compound 0.000999 µM): 82.6%
- viability, T/C (second compound 10 µM, first compound 0.00316 µM): 88.7%
- viability, T/C (second compound 10 µM, first compound 0.00999 µM): 81.1%
- viability, T/C (second compound 10 µM, first compound 0.0316 µM): 83.2%
- viability, T/C (second compound 10 µM, first compound 0.0999 µM): 88.4%
- viability, T/C (second compound 10 µM, first compound 0.316 µM): 60.6%
